Test results: patent publication US9611295B2, “Treatment of IL-17 mediated disease by blocking SEFIR-SEFIR interactions” (THE CLEVELAND CLINIC FOUNDATION, priority 2011, dated 2017)

Assays:
[1] = tested on: House Dust Mite (HDM)-induced Asthma; assay: Murine model of House Dust Mite (HDM)-induced asthma; format: in vivo, mouse; conditions: day 6; about 100,000 cells/ml without peptide
Procedure: FIG. 11 provides a graph showing that the ASI peptide inhibits inflammation in a murine model of experimental House Dust Mite (HDM)-induced Asthma. The white blood cell count was about 100,000 cells/ml when IL-17 was used alone, but dropped to about 10,000 cells/ml when ASI peptide was used together with IL-17. […] Ears from C57B1/6 mice (n=3 for each group) were injected daily with PBS, IL-17 with or without ASI. On day 7, ears were collected for staining with H&E and real-time analysis of gene expression.

[2] = tested on: IL-17-induced inflammation in mouse ear skin; assay: IL-17-induced inflammation in mouse ear skin; format: in vivo; conditions: C57B1/6 mice, daily injection
Procedure: Ears from C57B1/6 mice (n=3 for each group) were injected daily with PBS, IL-17 with or without ASI. On day 7, ears were collected for staining with H&E and real-time analysis of gene expression.

[3] = tested on: IL-25-mediated expression of Il13; assay: IL-25-mediated Il13 mRNA expression in MEFs, real-time RT-PCR; format: cell-based, mouse; conditions: peptides 200 μM for 24 hours, then IL-25 for 3 hours
Procedure: (§1) FIG. 4 provides data showing that a cell-permeable CC′ loop decoy peptide disrupts the interaction between Act1 and IL-17RA and inhibits IL-17R and IL-25R signaling. FIG. 4A provides sequences of Antennapedia homeodomain (Antp) (SEQ ID NO: 11)and decoy peptides (SEQ ID NOS 23-25 and 17, respectively, in order of appearance) with the Antp sequence underlined. FIG. 4B provides flow cytometry results based on experiments in which MEFs expressing IL-17RB were incubated for 2 or 24 hours with the indicated FITC-tagged peptides (200 μM) and were then analyzed by flow cytometry. […] The percentages of FITC-positive cells in the treated samples are shown. […] FIG. 4D provides Western blot results of experiments in which MEFs expressing IL-17RB were incubated with the indicated peptides (200 μM) for 24 hours after which they were treated with IL-17 or IL-25 and then analyzed by Western blotting with the indicated antibodies. […] The abundances of Cxcl1 and Il13 mRNAs were then measured by real-time RT-PCR. […]
(§2) Decoy peptides are based on surface-exposed regions of the primary sequence of a protein to mimic a putative interaction interface. […] These decoy peptides were also tagged at their C-termini with fluorescein isothiocyanate (FITC) to enable their cell-penetrating efficiency to be evaluated by flow cytometric sanalysis. […]

[4] = tested on: IL-17-mediated expression of Cxcl1; assay: IL-17-mediated Cxcl1 mRNA expression in MEFs, real-time RT-PCR; format: cell-based, mouse; conditions: peptides 200 μM for 24 hours, then IL-17 for 3 hours
Procedure: as §1, §2

[5] = tested on: IL-25-dependent signaling; assay: IL-25-dependent signaling in MEFs by Western blotting (pIκB, pJNK, pERK, pp38 MAPK); format: cell-based, mouse; conditions: MEFs expressing IL-17RB, peptides 200 μM, 24 hours
Procedure: FIG. 4 provides data showing that a cell-permeable CC′ loop decoy peptide disrupts the interaction between Act1 and IL-17RA and inhibits IL-17R and IL-25R signaling. FIG. 4A provides sequences of Antennapedia homeodomain (Antp) (SEQ ID NO: 11)and decoy peptides (SEQ ID NOS 23-25 and 17, respectively, in order of appearance) with the Antp sequence underlined. FIG. 4B provides flow cytometry results based on experiments in which MEFs expressing IL-17RB were incubated for 2 or 24 hours with the indicated FITC-tagged peptides (200 μM) and were then analyzed by flow cytometry. […] The percentages of FITC-positive cells in the treated samples are shown. FIG. 4C provides Western blot results of experiments in which HeLa cells were cotransfected with plasmids encoding FLAG-tagged mAct1 and V5-tagged IL-17RA and were cultured for 24 hours, after which they were incubated for 24 hours with the indicated peptides (200 μM). IL-17RA was immunoprecipitated from the samples with antibody against the V5 tag, and samples were then subjected to Western blotting analysis with the indicated antibodies. FIG. 4D provides Western blot results of experiments in which MEFs expressing IL-17RB were incubated with the indicated peptides (200 μM) for 24 hours after which they were treated with IL-17 or IL-25 and then analyzed by Western blotting with the indicated antibodies. FIG. 4E provides bar graphs showing the results of experiments in which MEFs expressing IL-17RB were incubated with the indicated peptides (200 μM) for 24 hours, after which they were treated with IL-17 or IL-25 for 3 hours. The abundances of Cxcl1 and Il13 mRNAs were then measured by real-time RT-PCR. […]
as §2

[6] = target: T1, IL-17RA SEFIR domain (Homo sapiens, UniProt Q96F46); assay: SPR binding of peptides to immobilized IL-17RA SEFIR domain; conditions: sensor-immobilized IL-17RA SEFIR, Biacore 3000
T1 construct: IL17RA-SEFIR, amino acid residues 351 to 616; 6xHis (N, cleaved yes); TEV recognition site (ENLYFQG) (N, cleaved yes); made in house
T1 sequence (Q96F46 351-616): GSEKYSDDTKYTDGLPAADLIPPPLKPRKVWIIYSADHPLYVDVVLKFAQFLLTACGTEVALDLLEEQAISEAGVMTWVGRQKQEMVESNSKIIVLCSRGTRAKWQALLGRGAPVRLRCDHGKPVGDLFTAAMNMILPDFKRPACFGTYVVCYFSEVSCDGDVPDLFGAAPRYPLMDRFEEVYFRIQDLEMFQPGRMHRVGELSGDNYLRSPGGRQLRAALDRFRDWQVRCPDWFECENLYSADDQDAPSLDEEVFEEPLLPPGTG
From the text: The Cins helix and the CC′ loop are distinct putative surface-exposed sequences in the SEFIR3 segment of Act1. To determine whether the Cins helix and the CC′ loop interacted with IL-17RA, surface plasmon resonance (SPR) was used to test peptides derived from Cins (SPKYKQDVEGAESQ) (SEQ ID NO: 19) and the CC′ loop (LDEDEHGLHTKY) (SEQ ID NO: 5) for their ability to bind to the IL-17RA SEFIR domain. As expected, the recombinant Act1 SEFIR domain bound to the sensor-immobilized SEFIR of IL-17RA.
Expression and purification of IL-17RA and mAct1-SEFIR proteins: The cDNA encoding a SEFIR domain-containing fragment of human IL17RA (IL17RA-SEFIR, amino acid residues 351 to 616) was subcloned into a modified pET-28 vector, with a N-terminal 6×His tag (SEQ ID NO: 18)and a tobacco etch virus protease (TEV) recognition site (ENLYFQG) (SEQ ID NO: 21 )). The IL17RA SEFIR domain was expressed and purified by double-Nickel-Nitrilotriacetic Acid (Ni-NTA) affinity methods as previously described. Deng et al., Acta Crystallogr D Biol Crystallogr 60:203-204 (2004). The His-tag was subsequently removed from the eluted fusion protein by rTEV, and IL17RA-SEFIR was further purified as flow-through material from a second subtracting Ni-NTA column. Size-exclusion chromatography on a superdex s200 HR high resolution column was used as a final step for purification. The cDNA encoding a SEFIR domain containing a fragment of mouse Act1 (mAct1-SEFIR, residues 391 to 537) was subcloned into a modified pET28b vector that expresses maltose-binding protein (MBP) with an N-terminal 6×His tag (SEQ ID NO: 18) and a C-terminal TEV recognition site. Recombinant mAct1-SEFIR was expressed and purified as previously described. Deng et al., Proc Natl Acad Sci USA 105:1499-1504 (2008). The His-tagged MBP moiety was cleaved from the fusion protein by rTEV after the first Ni-NTA column purification. Recombinant mAct1-SEFIR was subsequently collected as flow-through from a second subtracting Ni-NTA column.
SPR analysis: Binding of purified Act1 SEFIR domain or peptides to IL-17RA was conducted on a Biacore 3000. Purified IL-17RA SEFIR domain was immobilized on a CM5 sensor chip in 10 mM acetic acid (pH 4.5). Purified Act1 SEFIR domain or peptides were allowed to flow over the chip in a buffer of 10 mM Hepes (pH 7.4), 150 mM NaCl, and 0.005% surfactant P20. The chip was regenerated with 1 M NaCl. Binding KD values were determined by Biaevaluation software.

Molecule: ASI peptide: the CC′ loop decoy peptide (SEQ ID NO: 5) (LDEDEHGLHTKY)
- white blood cell count in BAL [1]: about 10,000 cells/ml
- epidermal thickness and inflammation of ear skin (H&E) ([2]; day 7): inhibits IL-17-induced inflammation
- inflammatory gene expression in ear skin (bar graphs) ([2]; day 7, real-time analysis): counteracted the inflammatory results of IL-17

Molecule: Act1 SEFIR domain BB′ loop peptide: cell-permeable decoy peptide: BB′ loop sequence of Act1 SEFIR domain fused to C-terminus of Antp (DRQIKIWFQNRRMKWKKEDRIRGID) [reference compound]
- inhibition of IL-25-mediated expression of Il13 [3]: no effect
- inhibition of IL-17-mediated expression of Cxcl1 [4]: no effect
- IL-25-dependent signaling (pIκB, pJNK, pERK, pp38 MAPK) [5]: but not the Act1 SEFIR domain BB′ loop peptide, partly attenuated

Molecule: EDRIRGID (listed as Mus sp.) [peptide derived from the BB′ loop, reference compound]
- binding to the IL-17RA SEFIR domain (SPR) [6]: did not bind

Molecule: LDEDEHGLHTKY [CC′ loop peptide]
- binding to the IL-17RA SEFIR domain (SPR) [6]: bound to the IL-17RA SEFIR

Molecule: SPKYKQDVEGAESQ [Cins peptide, reference compound]
- binding to the IL-17RA SEFIR domain (SPR) [6]: but not the Cins peptide, bound to the IL-17RA SEFIR

B1: recombinant Act1 SEFIR domain: SEFIR domain containing fragment of mouse Act1, residues 391 to 537 (protein)
chain: RKVFITYSMDTAMEVVKFVNFLLVNGFQTAIDIFEDRIRGIDIIKWMERYLRDKTVMIIVAISPKYKQDVEGAESQLDEDEHGLHTKYIHRMMQIEFISQGSMNFRFIPVLFPNAKKEHVPTWLQNTHVYSWPKNKKNILLRLLREE
- binding to the IL-17RA SEFIR domain (SPR) [6]: bound
